Source: patent US20130116284A1, “LIPOIC ACID AND NITROXIDE DERIVATIVES AND USES THEREOF” (RADIKAL THERAPEUTICS INC., priority 2010, published 2013)
Where “and” joins values, the source holds several entries; their conditions need not be identical. Equal entries are not always repeated.

Experiments:
[1] = tested on: CD mice; test: rodent model of inflammation induced by zymosan (lung MPO, lung histology); assay type: in vivo; details: 60 mg/kg IP at 1 hour after zymosan 500 mg/kg IP; lung at 18 hours; vs. vehicle control
Description: In this study, we tested the potency of compound 1 (R-503) in treatment of an inflammation induced by zymosan, a glucan with repeating glucose units connected by β-1,3-glycosidic linkages.
Male CD mice (20-22 g) were randomly allocated into the following groups (n=10 per experimental arm): (i) zymosan+vehicle group, wherein zymosan (500 mg/kg) was administered via an intraperitoneal (IP) route; (ii) zymosan+compound 1 group, which was identical to the zymosan+vehicle group except for the administration of compound 1 (60 mg/kg IP) at 1 hour after zymosan challenge; and (iii) Sham+vehicle group, which was identical to the zymosan+vehicle group but vehicle was administered in place of zymosan. 18 hours after zymosan admininstration, lung samples were scored for histologic injury by a pathologist blinded to group assignment and neutrophil concentration was determined by measurement of myeloperoxidase (MPO) activity. The following morphological criteria were used for scoring: 0, normal lung; grade 1, minimal edema or infiltration of alveolar or bronchiolar walls; grade 3, moderate edema and inflammatory cell infiltration without obvious damage to lung architecture; grade 4, severe inflammatory cell infiltration with obvious damage to lung architecture. […]

[2] = target: PARP-1 (Homo sapiens, UniProt P09874); test: in vitro PARP inhibition potency assay, Universal calorimetric PARP-1 Assay Kit (Trevigen); assay type: biochemical; details: 10 point curve, 0.16 nM to 250 nM
Chain of PARP-1 (P09874 whole entry): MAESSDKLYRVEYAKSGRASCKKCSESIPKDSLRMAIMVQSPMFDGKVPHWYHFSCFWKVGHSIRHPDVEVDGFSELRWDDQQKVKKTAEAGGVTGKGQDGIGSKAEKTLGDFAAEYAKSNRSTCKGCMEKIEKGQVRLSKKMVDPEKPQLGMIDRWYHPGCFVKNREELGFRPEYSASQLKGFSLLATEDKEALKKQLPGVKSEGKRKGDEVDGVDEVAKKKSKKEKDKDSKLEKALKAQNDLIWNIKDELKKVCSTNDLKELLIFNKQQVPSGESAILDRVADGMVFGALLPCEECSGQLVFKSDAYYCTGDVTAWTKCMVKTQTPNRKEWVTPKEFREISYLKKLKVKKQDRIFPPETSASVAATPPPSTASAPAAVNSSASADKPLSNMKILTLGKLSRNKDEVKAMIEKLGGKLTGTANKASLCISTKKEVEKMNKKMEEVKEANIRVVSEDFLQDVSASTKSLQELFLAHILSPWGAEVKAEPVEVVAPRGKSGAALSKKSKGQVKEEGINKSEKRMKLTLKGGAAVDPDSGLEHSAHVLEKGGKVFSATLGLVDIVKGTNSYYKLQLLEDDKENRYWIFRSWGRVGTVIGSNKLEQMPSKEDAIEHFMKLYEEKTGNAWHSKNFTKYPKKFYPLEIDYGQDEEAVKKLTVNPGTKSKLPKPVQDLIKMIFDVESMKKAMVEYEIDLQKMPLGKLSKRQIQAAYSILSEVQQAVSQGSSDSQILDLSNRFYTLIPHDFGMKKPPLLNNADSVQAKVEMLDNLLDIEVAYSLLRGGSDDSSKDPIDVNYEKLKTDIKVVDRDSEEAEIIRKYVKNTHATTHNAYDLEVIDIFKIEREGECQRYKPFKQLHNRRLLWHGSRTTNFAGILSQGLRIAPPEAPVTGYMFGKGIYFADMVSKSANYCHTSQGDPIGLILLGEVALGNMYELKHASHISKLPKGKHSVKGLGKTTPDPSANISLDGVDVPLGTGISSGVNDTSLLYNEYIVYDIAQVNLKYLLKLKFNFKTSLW
Description: In this experiment, the PARP inhibition activity of compound 1 (R-503) was evaluated in in vitro potency assay using Universal calorimetric PARP-1 Assay Kit (Trevigen, Gaithersburg, Md.).

[3] = tested on: Balb/c mice; test: murine model of chlorine inhalational lung injury (lung MPO, lung histology); assay type: in vivo; details: 30 mg/kg/dose IP q12h from 15 minutes after 400 ppm Cl2 for 30 minutes; lung at 24 hours; relative to placebo (D5W)
Description: In this study, we potency of compound 1 (R-503) in treatment of chlorine inhalational lung injury was tested.
Male Balb/c mice were exposed in a cylindrical glass chamber to 400 ppm Cl2 in air for 30 minutes. 15 minutes after the conclusion of Cl2 exposure, mice were initiated on a q12h regimen of compound 1 (30 mg/kg/dose IP in 0.5 ml dextrose 5% in water, D5W). At 24 hours, mice were euthanized and lung tissue was taken for examination of polymorphonuclear neutrophil (PMN) infiltration (as reflected by MPO) and lung histology (H&E staining). The following morphological criteria were used for scoring: 0, normal lung; grade 1, minimal edema or infiltration of alveolar or bronchiolar walls; grade 3, moderate edema and inflammatory cell infiltration without obvious damage to lung architecture; grade 4, severe inflammatory cell infiltration with obvious damage to lung architecture. As shown in FIGS. 4A-4B, compound 1 therapy reduced the elevation in MPO and histological lung damage by 82% and 73%, respectively, relative to placebo (D5W).

[4] = tested on: PARP; details: read-out: PARP inhibitor IC50; stated for the monofunctional PARP inhibitor, no method given; cited from earlier work
[5] = tested on: RAW cells; test: cytoprotection of RAW cells exposed to H2O2 (viability); details: 0.1 μM, same model system (not shown)

Q: What does the source list for `NC(=O)c1cccc2[nH]c(CCCCC3CCSS3)nc12` (stereo not shown) [compound 1, 2-(4-(1,2-dithiolan-3-yl)butyl)-1H-benzo[d]imidazole-4-carboxamide]?
A: reduction of elevation in lung MPO activity [1]: 65%; reduction of lung histologic injury [1]: 80%; IC50 [2]: 0.0262 µM and 0.026 µM; reduction of elevation in lung MPO [3]: 82%; reduction of histological lung damage [3]: 73%

Q: Which IC50 [4] does the source give for `C[C@]1(c2nc3c(C(N)=O)cccc3[nH]2)CCCN1` [ABT-888] here?
A: < 0.005 µM

Q: With `O=C(O)CCCC[C@@H]1CCSS1` (racemic) [lipoic acid] as the compound, how does the “cytoprotective effect in RAW cells exposed to H2O2” value [5] read?
A: no beneficial effect
